Assay results published in patent publication US8173668B1 (Alcon Research, Ltd., priority 2007, dated 2012).

What was measured:
[1] = molecular target: T1, B2-receptors in h-TM cells (Homo sapiens, UniProt P30411); assay: [Ca2+]i mobilization (FLIPR) in h-TM cells, agonist mode; assay type: cell-based; details: h-TM cells, mean ± SEM
T1 construct: B2-receptor proteins in h-TM, h-CM and h-NPE cells; endogenous in cells; host or cells: human trabecular meshwork (h-TM), human ciliary muscle (h-CM) and human non-pigmented ciliary epithelial (h-NPE) cells
T1 sequence (P30411 1-391): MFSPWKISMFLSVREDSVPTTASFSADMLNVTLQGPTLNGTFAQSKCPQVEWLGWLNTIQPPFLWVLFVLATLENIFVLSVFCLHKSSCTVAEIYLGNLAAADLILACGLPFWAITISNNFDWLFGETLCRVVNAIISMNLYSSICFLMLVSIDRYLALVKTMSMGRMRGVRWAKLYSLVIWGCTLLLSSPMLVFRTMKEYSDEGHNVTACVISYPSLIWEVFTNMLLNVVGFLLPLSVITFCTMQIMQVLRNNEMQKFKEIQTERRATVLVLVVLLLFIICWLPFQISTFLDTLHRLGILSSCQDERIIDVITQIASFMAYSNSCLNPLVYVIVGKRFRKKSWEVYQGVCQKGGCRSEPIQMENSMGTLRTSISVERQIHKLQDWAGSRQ
Experimental: On the day of the experiment, one vial of FLIPR Calcium Assay Kit dye is re-suspended in 50 mL of a FLIPR buffer consisting of Hank's Balanced Salt Solution (HBSS), 20 mM HEPES, and 2.5 mM probenecid, pH 7.4. Cells are loaded with the calcium-sensitive dye by addition of an equal volume (50 μL) to each well of the 96-well plate and incubated with dye for 1 h at 23° C. After this time, the test compound plate and cell plate are placed in the FLIPR instrument. At the beginning of an experimental run, a signal test is performed to check the basal fluorescence signal from the dye-loaded cells and the uniformity of the signal across the plate. The basal fluorescence is adjusted between 8000-12000 counts by modifying the exposure time, the camera F-stop, or the laser power. Instrument settings for a typical assay are the following: laser power 0.3-0.6 W, camera F-stop F/2, and exposure time 0.4 sec.
Fluorescence data are collected in real-time at 1.0 sec intervals for the first 60 secs and at 6.0 sec intervals for an additional 120 secs. […] The data are then analyzed using an automated, iterative, sigmoidal curve-fitting computer program to obtain the potency and intrinsic activities of the test agents as previously described (Sharif et al. J. Pharmacol. Exp. Ther. 286: 1094-1102, 1998; Sharif et al. Invest. Ophthalmol. Vis. Sci. 39:2562-2571, 1998; Kelly et al. J. Pharmacol. Exp. Ther. 304: 238-245, 2003). The sources of materials and reagents for such assays can be found in the references cited above.

[2] = molecular target: human cloned B2-receptors (Homo sapiens, UniProt P30411); assay: HTRF-based assay of endogenous IP1 production in CHO cells; assay type: cell-based; details: CHO cells expressing human cloned B2-receptors, read-out: EC50, production of endogenous IP1 from PI turnover
Experimental: The cells are suspended in IP1 stimulation buffer containing Hepes 10 mM, CaCl2 1 mM, MgCl2 0.5 mM, KCl 4.2 mM, NaCl 146 mM, Glucose 5.5 mM, LiCl 50 mM pH 7.4, then distributed in microplates at a density of 40,000 cells/well (B2 receptor assays) or 30,000 cells/well (B1 receptor assays). Test compounds are added to the cells at various concentrations and incubated for 20 min at 37° C. […] Following the 20 min incubation at 37° C., the cells are lysed and the fluorescence acceptor (D2-labeled IP1) and fluorescence donor (anti-IP1 antibody labeled with europium cryptate) are added. After 60 min at room temperature, the fluorescence transfer is measured at λex=337 nm and λem=620 and 665 nm using a microplate reader.

[3] = tested on: ocular hypertensive eyes of ketamine-sedated cynomolgus monkeys; assay: Aqueous humor dynamics (fluorophotometry, tonography) in ketamine-sedated cynomolgus monkeys; assay type: in vivo; details: Treatment Day, Hypertensive Eye OS; one drop of 30 μl 0.01% the day before; mean ± SD
Description: Methods used in this Example were described by Yablonski et al. Invest Ophthalmol V is Sci 1987; 28:2076-2082; Hayashi et al. Exp Eye Res 1989; 48:621-625; Mäepea et al. Exp Eye Res 1989; 49:645-663, and as below:
Twelve female cynomolgus monkeys between the ages of 5 and 8 years were included in the study. All had unilateral laser treatment to the trabecular meshwork of the left eye. Lasering had been done between 2 and 4 years before the study.
Measurements were made on baseline day and after AL-42205-01 (FR-190997) treatment to both eyes. When necessary, sedation was induced by ketamine hydrochloride (HCl), 1 to 5 mg/kg, administered intramuscularly 5 minutes before a measurement to achieve pharmacological restraint. Animals were seated in specially designed chairs for all tonometry and fluorophotometry measurements. Fifteen hours prior to each study day, IOP1 was measured with a pneumatonometer (Classic 30, Xomed, Jacksonville, Fla.) after topical application of proparacaine HCl, 0.13%. Fluorescein (10%) was applied to the cornea by topical drops. Measurements commenced at 8:30-9:00 a.m. the following day with tonometry (IOP2). The fluorescence of the cornea and anterior chamber were measured in duplicate with a scanning fluorophotometer (Fluorotron, OcuMetrics, Palo Alto, Calif.). Scans were taken at 45 minute intervals for a total of 4 sets.
After the fourth set of scans and another IOP measurement (IOP3), an intramuscular injection of acetazolamide (12-20 mg/kg) was administered to reduce IOP by reducing aqueous flow. The dose of acetazolamide for individual monkeys depended on its IOP efficacy in previous studies. Fluorophotometric scans and IOP measurements were repeated 0.75, 1.50 and 2.25 hours after acetazolamide injection. Fluorophotometric outflow facility (Cfl) was calculated as the ratio of the change in aqueous flow to the change in IOP. Uveoscleral outflow (Fus) was calculated by the equation Fus=Fa−Cfl (IOP3−Pev) where Pev is the episcleral venous pressure. A value of 15 mmHg was used. The final measurement was two-minute tonography. The tonography mode of the pneumatonometer was used. Calculations were made using PowerLab and Excel.
Treatment measurements were collected between 6 and 21 days after baseline measurements. The day before the measurement day, conscious IOP was measured (IOP1; 9:00 AM) and one drop of 30 μl of AL-42205-01 0.01% (in matrix vehicle) was applied to both eyes. The drug was used within a week of receipt. It was stored refrigerated before use. Conscious IOP was measured again (IOP2; 5 PM) just before fluorescein was applied as before. The day of fluorophotometry, all measurements were made under sedation as on baseline day.
Values were compared between eyes on each day and baseline values were compared with post-treatment values using Student's two-tailed paired t-test (Table 11). Values are reported as means± standard deviation (SD).

cats = assay: IOP-lowering activity in cats; assay type: in vivo
Description: Some obvious drawbacks and reasons for the lack of consistent observations noted above are probably related to species differences in the effects of BK on IOP changes and on the fact that BK is a labile peptide that can easily and rapidly be inactivated by kininases and other proteases when it comes into contact with body fluids (Hall, Pharmacol. Ther., 56, 131-190, 1992). Additionally, topical ocular administration of peptides such as BK are confounded by the potential lack of or little bioavailability through the cornea to reach the anterior segment of the eye. […] This is probably related to the attainment of a relevant concentration in the aqueous humor and ciliary body when the compound was administered topical ocularly.

CNC(=O)c1ccc(/C=C/C(=O)NCC(=O)N(C)c2ccc(Cl)c(COc3cccc4c(OCc5ccccn5)cc(C)nc34)c2Cl)cc1 [FR-190997]
Emax ([1]; HTM, read-out: Intrinsic Activity (Emax, % max relative to BK)): 86% | EC50 ([1]; read-out: Potency (EC50), [Ca2+]i mobilization): 167 ± 29 nM | EC50 [2]: 21 nM | Cfl, fluorophotometric outflow facility [3]: 0.18 ± 0.16 μl/min/mmHg | Cton, tonographic outflow facility [3]: 0.17 ± 0.11 μl/min/mmHg | Fa, aqueous flow [3]: 1.48 ± 0.53 µL/min | Fufl, uveoscleral outflow calculated with Cfl [3]: 1.23 ± 0.91 µL/min | Futon, uveoscleral outflow calculated with Cton [3]: 1.45 ± 0.45 µL/min | ability to lower IOP (cats): unable to lower IOP
